In patent US6379959B1, “Metalocarboxypeptidase inhibitors and derived molecules used as antitumor agents” (Universitat Autonoma de Barcelona, priority 1996, dated 2002):
Positions of bridges follow the written chain, without caps; N, C: chain ends. No end group written: not given here.

Columns and labels:
[1] = system: human pancreatic adenocarcinoma cell line Panc-1; experiment: Proliferation test with tetrazolium salts, Panc-1 in medium with serum, 10 days; type: cell-based
Procedure: It was performed the same kind of test which had been carried out for the Capan-1 cell line but with Panc-1, another human pancreatic adenocarcinoma cell line. We are referring to a human pancreatic adenocarcinoma ATCC nr. CRL 1469, established by Lieber, M. et al. (1975) In. J. Cancer, 15: 741-747. Of ductal origin, it is not highly differentiated.
As for the Capan-1 cell line, two types of experiments were carried out with and without bovine fetal serum. The protocol followed for the test, growing in RPMI plus bovine fetal serum, was the same as that used with Capan-1 cell line but with small variations, given the difference in the duplication times between the two lines. The tests were carried out with the native PCI (wtPCI) and with the mutant PCI (PCIdelYVG). The protocol is detailed as follows:
1. In a culture plate with 96 wells, 2,000 cells were seed in 30 wells for the tests with wtPCI and in 36 for the tests with PCIdelYVG. From these 30 or 36:
In 6 wells (control), 200 μL of full medium (RPMI+10%FBS) without wtPCI or PCIdelYVG/mL were added. […]
2. The cells were kept in an incubator at 37° C., 87% of relative humidity and 10% of CO2. The old medium was sucked out with a Pasteur pipette. Medium free of wtPCI or PCIdelYVG was added to the control wells and to the others a medium was added with identical concentration of wtPCI or PCIdelYVG.
3. After 10 days, the cell growth was evaluated per well, according to the method detailed in the protocol of Section 4.B.2.a.

[2] = system: human pancreatic adenocarcinoma cell line Capan-1; experiment: Cytotoxicity test with BCECF-AM and propydium iodure; type: cell-based; details: PCI 10-75 μg/mL, 24 h
Description: The cytotoxicity test is based on the use of two fluorophores, BCECF-AM and propydium iodure. The first one is employed to mark the viable cells because it quickly penetrates into the cellular cytoplasm where it is fragmented by the action of the esterases, becoming a fluorescent molecule. These esterases only being active when the cells are alive. Propydium iodine is a derivative of the phenanthrene which specifically joins the polynucleotide structure of nucleic acids intercalating between their pairs of bases. Due to its ionic structure it cannot penetrate into the live cells but it can do so into the dead ones, labeling DNA and RNA. […]
1. The absorbancy of the plate was read using cytofluor. The cytofluor is a fluorometer especially designed for reading the fluorescence of the cells; it is controlled by computer which makes it possible to employ various filter combinations of excitation-emission at the same time. […] These filters allow us to detect the fluorescence of the two reagents employed for the cytotoxicity test such as BCECF-AM and propydium iodide. This first reading corresponds to the self-fluorescence of the cells, which it will later be deducted from the final value of the fluorescence. […]
3. Afterwards, the absorbancy of the plate was read. This measure corresponds to the total fluorescence.
4. […] Thus, we eliminated the fluorescence that had not been incorporated by the cells. […]

PCI: potato carboxypeptidase inhibitor, isoform IIa, obtained by recombinant DNA techniques in E. coli (SEQ ID NO.2) (EQHADPICNKPCKTHDDCSGAWFCQACWNSARTCGPYVG; disulfide 12-27, 18-34, 8-24)
Growth (Percentage in relation to the average of the controls) ([1]; 0.1 mg/mL wtPCI, RPMI+10%FBS): 90.85%
Growth (Percentage in relation to the average of the controls) ([1]; 1 mg/mL wtPCI): 84.55%
Growth (Percentage in relation to the average of the controls) ([1]; 10 mg/mL wtPCI): 82.22%
Growth (Percentage in relation to the average of the controls) ([1]; 50 mg/mL wtPCI): 71.14%
level of inhibition ([1]; concentration of 0.1 μg/mL): 9.15%
level of inhibition ([1]; concentration of 50 μg/mL): 28.86%
cell death (propydium iodure fluorescence) [2]: No significant difference in relation to the control group
viability of the cells (BCECF-AM fluorescence) [2]: no decrease of viability being observed
